The text below walks through data of patent US4058523A, “Bis(benzamido)-benzene derivatives” (Chugai Seiyaku Kabushiki Kaisha, priority 1974, dated 1977).

This test has as its system stress-induced ulcer formation. Kind of test: Inhibitory action on stress-induced ulcer formation. The following applies: 100 mg/kg, oral, rats; for Number of Ulcers/Stomach, 3 mm or larger / Number of Ulcers/Stomach, up to 3 mm: 10 minutes before stress; for Ulcer Index (mean value ± standard deviation): Ulcer Index = a + b/10, Control 6.1 ± 2.3; for inhibition in vivo at 100 mg/kg: Rattus norvegicus, 16 h, stress-induced ulcer, read-out: Percent Inhibition. Type of test: in vivo, Sprague-Dawley strain male rats. The protocol:
Action on stress-induced ulcer formation
Sprague-Dawley strain male rats weighing 200-250 g were deprived of food for 24 hours, and then laid down on their backs on a screen and fixed by fastening their limbs with a strand. The fixed rats were submerged in water bath to the depth of ensiform process with their hind legs dipped first. Sixteen hours after the submergence, the rats were brought out from the bath and their stomachs were taken out. After light fixation with a 1% formalin aqueous solution, the stomach of each animal was cut open along their greater curvature and gastric mucosa was observed through a dissecting microscope. The ulcer was evaluated on an ulcer index calculated from the following equation: […]
wherein a is the number of big ulcers more than 3 mm in diameter and b is the number of small ulcers up to 3 mm in diameter.
A test compound was orally administered as a suspension in a 1% gum arabic aqueous solution, 10 minutes before exposure to stress.

Molecules are shown by their SMILES. Where a name gives a salt, the structure may show the parent alone.

Consider `Cc1ccc(C(=O)Nc2ccc(C(=O)NCCCN(C)C)c(NC(=O)c3ccc(C)cc3)c2)cc1` [1-[N-(3'-dimethylaminopropyl)-carbamoyl]-2,4-bis(4"-methylbenzamido)-benzene], for which the “Number of Ulcers/Stomach, 3 mm or larger” value stood at 1.0; the “Number of Ulcers/Stomach, up to 3 mm” value amounted to 19; the “Ulcer Index (mean value ± standard deviation)” value is recorded as 3.0 ± 1.4; the inhibition in vivo at 100 mg/kg amounted to 60%.
The like results for `CCN(CC)CCCCOc1ccc(NC(=O)c2ccccc2OC)cc1NC(=O)c1ccccc1OC` [1-(4'-diethylaminobutoxy)-2,4-bis(2"methoxybenzamido)-benzene] were, in that order, 0.8, 11, 1.8 ± 1.5 and 71%.
As to `CCN(CC)CCCOc1ccc(NC(=O)c2ccccc2C)cc1NC(=O)c1ccccc1C` [1-(3'-diethylaminopropoxy)-2,4-bis(2"-methylbenzamido)-benzene], the “Number of Ulcers/Stomach, 3 mm or larger” value is listed as 0; the “Number of Ulcers/Stomach, up to 3 mm” value came to 6; the “Ulcer Index (mean value ± standard deviation)” value was 0.5 ± 1.0; the inhibition in vivo at 100 mg/kg came to 92%.
The matching figures for `CCN(CC)CCCNC(=O)c1ccc(NC(=O)c2cccc(C)c2)cc1NC(=O)c1cccc(C)c1` [1-[N(3'-diethylaminopropyl)-carbamoyl]-2,4-bis(3"-methylbenzamido)-benzene]: 0, 12, 1.0 ± 0.6 and 85%.
The like results for `CCN(CC)CCCNC(=O)c1ccc(NC(=O)c2ccccc2OC)cc1NC(=O)c1ccccc1OC` [1-[N-(3'-diethylaminopropyl)-carbamoyl]-2,4-bis(2"-methoxybenzamido)-benzene] were, in that order, 0, 11, 1.3 ± 0.5 and 80%.
On to `Cc1ccccc1C(=O)Nc1ccc(OCCCCN(C)C)c(NC(=O)c2ccccc2C)c1` [1-(4'-dimethylaminobutoxy)-2,4-bis(2"-methylbenzamido)-benzene], for which the “Number of Ulcers/Stomach, 3 mm or larger” value came out at 0.2; the “Number of Ulcers/Stomach, up to 3 mm” value came to 6; the “Ulcer Index (mean value ± standard deviation)” value was found to be 1.0 ± 0.6; the inhibition in vivo at 100 mg/kg was found to be 85%.
The matching figures for `COc1ccccc1C(=O)Nc1ccc(OCCCN(C)C)c(NC(=O)c2ccccc2OC)c1` [1-(3'-dimethylaminopropoxy)-2,4-bis(2"-methoxybenzamido)-benzene trihydrochloride]: 0.5, 13, 1.8 ± 2.4 and 71%.
The matching figures for `CCN(CC)CCNC(=O)c1ccc(NC(=O)c2cccc(C)c2)cc1NC(=O)c1cccc(C)c1` [1-[N-(2'-diethylaminoethyl)-carbamoyl]-2,4-bis(3"-methylbenzamido)-benzene]: 1.3, 27, 4.0 ± 2.6 and 46%.
The matching figures for `CCN(CC)CCCOc1ccc(NC(=O)c2cccc(C)c2)cc1NC(=O)c1cccc(C)c1` [1-(3'-diethylaminopropoxy)-2,4-bis(3"-methylbenzamido)-benzene]: 0.3, 6, 0.8 ± 1.0 and 87%.
For the compound `CCN(CC)CCNC(=O)c1ccc(NC(=O)c2ccccc2C)cc1NC(=O)c1ccccc1C` [1-[N-(2'-diethylaminoethyl)-carbamoyl]-2,4-bis(2"-methylbenzamido)-benzene], the “Number of Ulcers/Stomach, 3 mm or larger” value was determined as 1.2; the “Number of Ulcers/Stomach, up to 3 mm” value was determined as 29; the “Ulcer Index (mean value ± standard deviation)” value is on record as 4.2 ± 0.4; the inhibition in vivo at 100 mg/kg came to 38%.
The like results for `CCN(CC)CCCOc1ccc(NC(=O)c2ccccc2OC)cc1NC(=O)c1ccccc1OC` [1-(3'-diethylaminopropoxy)-2,4-bis(2"-methoxybenzamido)-benzene] were, in that order, 0.8, 8, 1.5 ± 2.4 and 76%.
For `CCN(CC)CCNC(=O)c1cc(NC(=O)c2ccccc2OC)cc(NC(=O)c2ccccc2OC)c1` [1-[N-(2'-diethylaminoethyl)-carbamoyl]-3,5-bis(2"-methoxybenzamido)-benzene hydrochloride], the “Number of Ulcers/Stomach, 3 mm or larger” value is 3.0; the “Number of Ulcers/Stomach, up to 3 mm” value came to 13; the “Ulcer Index (mean value ± standard deviation)” value came out at 4.3 ± 2.2; the inhibition in vivo at 100 mg/kg worked out at 33%.
`CCN(CC)CCNC(=O)c1ccc(NC(=O)c2ccccc2OC)cc1NC(=O)c1ccccc1OC` [1-[N-(2'-diethylaminoethyl)-carbamoyl]-2,4-bis(2"-methoxybenzamido)-benzene hydrochloride]: the “Number of Ulcers/Stomach, 3 mm or larger” value is listed as 1.1; the “Number of Ulcers/Stomach, up to 3 mm” value was found to be 12; the “Ulcer Index (mean value ± standard deviation)” value stood at 3.8 ± 2.3; the inhibition in vivo at 100 mg/kg worked out at 40%.
With `Cc1cccc(C(=O)Nc2ccc(OCCCCN(C)C)c(NC(=O)c3cccc(C)c3)c2)c1` [1-(4'-dimethylaminobutoxy)-2,4-bis(3"-methylbenzamido)-benzene], the “Number of Ulcers/Stomach, 3 mm or larger” value was found to be 0.5; the “Number of Ulcers/Stomach, up to 3 mm” value came out at 8; the “Ulcer Index (mean value ± standard deviation)” value is on record as 1.2 ± 1.6; the inhibition in vivo at 100 mg/kg was determined as 82%.
As for `CCN(CC)CCCOc1ccc(NC(=O)c2ccc(C)cc2)cc1NC(=O)c1ccc(C)cc1` [1-(3'-diethylaminopropoxy)-2,4-bis(4"-methylbenzamido)-benzene], the “Number of Ulcers/Stomach, 3 mm or larger” value stood at 1.3; the “Number of Ulcers/Stomach, up to 3 mm” value came to 17; the “Ulcer Index (mean value ± standard deviation)” value amounted to 3.0 ± 0.8; the inhibition in vivo at 100 mg/kg came out at 52%.
The matching figures for `CCN(CC)CCNC(=O)c1ccc(NC(=O)c2ccc(C)cc2)cc1NC(=O)c1ccc(C)cc1` [1-[N-(2'-diethylaminoethyl)-carbamoyl]-2,4-bis(4"-methylbenzamido)-benzene]: 1.4, 26, 4.0 ± 1.4 and 40%.
